pIC50: −log10 of the molar value.
Assays:
EGFR (human) [1] = molecular target: EGFR (human) (UniProt P00533); settings: ovcar-3
EGFR (human) [2] = molecular target: EGFR (human) (UniProt P00533); settings: hop-62
EGFR (human) [3] = molecular target: EGFR (human) (UniProt P00533); settings: sn12c
EGFR (human) [4] = molecular target: EGFR (human) (UniProt P00533); settings: uacc-62
EGFR (human) [5] = molecular target: EGFR (human) (UniProt P00533); settings: du-145
EGFR (human) [6] = molecular target: EGFR (human) (UniProt P00533); settings: sf-539
EGFR (human) [7] = molecular target: EGFR (human) (UniProt P00533); settings: mda-mb-435
EGFR (human) [8] = molecular target: EGFR (human) (UniProt P00533); settings: mcf-7
EGFR (human) [9] = molecular target: EGFR (human) (UniProt P00533); settings: ccrf-cem
EGFR (human) [10] = molecular target: EGFR (human) (UniProt P00533); settings: hct-116
EGFR (mouse) = EGFR (mouse) (UniProt P00533); settings: baf3

Chain of EGFR (human) (P00533 whole entry, looked up): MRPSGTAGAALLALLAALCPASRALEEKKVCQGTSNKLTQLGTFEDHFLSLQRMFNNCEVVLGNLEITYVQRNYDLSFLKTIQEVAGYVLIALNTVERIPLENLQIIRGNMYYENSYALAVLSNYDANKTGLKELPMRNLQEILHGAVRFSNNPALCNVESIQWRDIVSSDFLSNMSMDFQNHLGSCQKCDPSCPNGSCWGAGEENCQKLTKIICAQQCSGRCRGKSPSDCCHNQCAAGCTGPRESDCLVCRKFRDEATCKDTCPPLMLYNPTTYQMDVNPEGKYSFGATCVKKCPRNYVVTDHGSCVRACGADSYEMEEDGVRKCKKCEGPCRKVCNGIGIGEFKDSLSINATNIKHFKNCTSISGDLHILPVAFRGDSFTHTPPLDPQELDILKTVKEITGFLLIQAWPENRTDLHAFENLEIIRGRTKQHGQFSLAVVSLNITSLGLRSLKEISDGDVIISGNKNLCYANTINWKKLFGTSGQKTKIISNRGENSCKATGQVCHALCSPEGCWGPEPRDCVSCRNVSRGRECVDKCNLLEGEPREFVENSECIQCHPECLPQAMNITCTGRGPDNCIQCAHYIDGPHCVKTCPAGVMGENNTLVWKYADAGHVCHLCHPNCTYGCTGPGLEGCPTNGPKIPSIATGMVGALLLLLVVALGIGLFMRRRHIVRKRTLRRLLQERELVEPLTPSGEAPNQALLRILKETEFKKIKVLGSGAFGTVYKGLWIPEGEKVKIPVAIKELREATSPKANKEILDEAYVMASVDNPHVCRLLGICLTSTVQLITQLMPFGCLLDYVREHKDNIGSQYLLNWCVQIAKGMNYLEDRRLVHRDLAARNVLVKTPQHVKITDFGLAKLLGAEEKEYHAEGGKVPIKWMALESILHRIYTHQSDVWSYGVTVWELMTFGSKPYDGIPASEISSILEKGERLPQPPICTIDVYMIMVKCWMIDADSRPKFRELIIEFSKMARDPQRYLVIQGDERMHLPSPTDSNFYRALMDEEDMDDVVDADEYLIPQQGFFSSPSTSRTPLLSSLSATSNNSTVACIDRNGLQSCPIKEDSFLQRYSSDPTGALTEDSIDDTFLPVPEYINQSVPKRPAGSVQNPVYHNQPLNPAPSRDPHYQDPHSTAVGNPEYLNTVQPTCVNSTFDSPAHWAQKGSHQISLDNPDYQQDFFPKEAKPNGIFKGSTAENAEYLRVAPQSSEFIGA

pIC50 (EGFR (human) [1]) | pIC50 (EGFR (human) [2]) | pIC50 (EGFR (human) [3]) | pIC50 (EGFR (human) [4]) | pIC50 (EGFR (human) [5]) | pIC50 (EGFR (human) [6]) | pIC50 (EGFR (human) [7]) | pIC50 (EGFR (human) [8]) | pIC50 (EGFR (human) [9]) | pIC50 (EGFR (human) [10]) | pIC50 (EGFR (mouse)) | Compound
– | – | – | – | – | – | – | < 4.30 | – | – | – | CC(C)CCCC(C)[C@H]1CCC2C3CCC4C[C@@H](NC(=O)c5cc(NCc6cc(O)ccc6O)ccc5O)CC[C@]4(C)C3CC[C@@]21C (stereo partly drawn)
– | 4.80 | 5.49 | 5.10 | 4.89 | 5.47 | – | – | 6.08 | 5.19 | – | O=C(NCCCc1ccccc1)c1ccc(NCc2cc(O)ccc2O)cc1
– | 4.74 | – | 5.07 | 4.80 | 4.80 | 5.00 | – | – | 5.12 | – | O=C(NCCc1ccc(Br)cc1)c1cc(NCc2cc(O)ccc2O)ccc1O
5.57 | 4.89 | 5.13 | 5.03 | 4.85 | 5.07 | – | – | 6.23 | 5.13 | < 3.70 | O=C(NCCc1ccccc1)c1ccc(NCc2cc(O)ccc2O)cc1
5.26 | 4.92 | 4.14 | – | 4.68 | 4.80 | 4.80 | – | 5.49 | 4.64 | < 4.00 | COc1ccc(CCNC(=O)c2cc(NCc3cc(O)ccc3O)ccc2O)cc1
4.77 | 4.70 | 4.72 | 4.77 | 4.77 | 4.54 | 4.89 | – | 6.00 | 4.77 | – | O=C(NCCc1ccccn1)c1cc(NCc2cc(O)ccc2O)ccc1O

The remaining lines, values behind:

Compound | pIC50 (EGFR (human) [1]) | pIC50 (EGFR (human) [2]) | pIC50 (EGFR (human) [3]) | pIC50 (EGFR (human) [4]) | pIC50 (EGFR (human) [5]) | pIC50 (EGFR (human) [6]) | pIC50 (EGFR (human) [7]) | pIC50 (EGFR (human) [8]) | pIC50 (EGFR (human) [9]) | pIC50 (EGFR (human) [10]) | pIC50 (EGFR (mouse))
O=C(NCCc1ccc(O)cc1)c1cc(NCc2cc(O)ccc2O)ccc1O | 4.21 | 5.60 | 4.72 | 4.74 | 4.77 | 5.60 | 4.64 | – | – | – | –
O=C(NCCc1ccc(Cl)cc1)c1cc(NCc2cc(O)ccc2O)ccc1O | 5.23 | 4.77 | 5.01 | – | 4.80 | 5.08 | 4.70 | – | 5.80 | 4.82 | –
O=C(NC1CCc2ccccc2C1)c1cc(NCc2cc(O)ccc2O)ccc1O (stereo not drawn) | – | 4.77 | 4.74 | 4.85 | 4.77 | 5.57 | 5.04 | – | 5.85 | 4.80 | –
O=C(NCCN1CCOCC1)c1cc(NCc2cc(O)ccc2O)ccc1O | 4.06 | – | 4.66 | 4.77 | 4.77 | 4.72 | 4.89 | – | 5.74 | 4.70 | < 4.30
O=C(NCCCc1ccccc1)c1cc(NCc2cc(O)ccc2O)ccc1O | 5.19 | 4.66 | 4.82 | 4.85 | 5.08 | 4.80 | 4.74 | – | 5.62 | 4.62 | –
O=C(NCc1ccccc1)c1cc(NCc2cc(O)ccc2O)ccc1O | 4.68 | 4.64 | 4.92 | 4.82 | 4.80 | 4.68 | 4.52 | – | – | – | –
O=C(NCCc1ccccc1)c1cc(NCc2cc(O)ccc2O)ccc1O | 5.11 | 4.70 | 4.74 | 4.85 | 4.80 | 4.77 | 4.72 | – | 5.57 | 4.74 | –
CCCCCCCCCCCCNC(=O)c1cc(NCc2cc(O)ccc2O)ccc1O | 5.72 | 5.42 | 5.59 | 5.49 | 4.96 | 4.70 | 5.49 | – | 6.47 | 5.68 | –
O=C(NCCc1ccccc1)c1cccc(NCc2cc(O)ccc2O)c1 | 5.55 | 5.42 | 4.89 | 4.89 | 4.77 | 4.82 | 4.82 | – | 5.36 | 4.80 | –
CCCCCCNC(=O)c1cc(NCc2cc(O)ccc2O)ccc1O | 5.40 | 4.72 | 5.21 | 4.92 | 4.82 | 5.64 | 4.82 | – | 6.25 | 4.77 | –
O=C(NCc1ccccc1)c1ccc(NCc2cc(O)ccc2O)cc1 | 5.17 | 4.70 | 5.01 | 4.92 | 4.82 | 5.01 | 4.92 | – | 5.57 | 5.00 | < 4.00
O=C(NCCc1ccc(F)cc1)c1cc(NCc2cc(O)ccc2O)ccc1O | 4.96 | – | 5.11 | 5.11 | 4.74 | 5.04 | 4.89 | – | 6.54 | 5.04 | –

— the Kinase Knowledgebase extract (Sharma et al. 2016)
